Source: US5514668A (priority 1989, dated 1996)
Entries after “also recorded” stand apart in the source; their conditions may differ.

Assays:
mice = assay: Toxicity on intravenous injection in mice
Description: The content of free crown ether compound in this product was not analysed.
(§1) The product A was at a concentration of 1% injected intraveneously in mice which each received a dose of 0.4 ml corresponding to 32×10^-4 g crown ether.
The product B was tested similarily but at a concentration of 10%. The dose was here 0.4 ml corresponding to 6.0×10^-3 g crown ether compound. The content of free crown ether compound in this dose amounted to 1.2×10^-4 g.
Two series of comparison tests were also made with the crown ether monomer.
In the first test benzo-18-crown-6 was injected as aqueous solution having a concentration of 0.8% at a dose of 0.4 ml per animal, corresponding to 32×10^-4 g crown ether.
In the ether comparison test benzo-18-crown-6 was used at a concentration of 0.08%. Also here the dose was 0.4 ml corresponding to 3.2×10^-4 g crown ether.

Coccidia [1] = details: tissue culture; J. Med. Chem. 1983, 26, 590-592; cited from earlier work
Coccidia [2] = details: poultry, admixed in the fodder; cited from earlier work
[3] = Elimination in urine of mice (UV analysis); assay type: in vivo; details: i.v., 1% solution, 0.4 ml
Description: as §1

[4] = test system: foot- and -mouth disease virus, type A; details: mouse, in vivo
[5] = test system: foot-and-mouth desease virus, type C, Turup; set-up: species or system Turup; Guinea pigs; details: guinea pig, in vivo
[6] = Elimination of Cs^137 from blood of mice into urine; assay type: in vivo
Description: Tests were performed at Fors.o slashed.gsstation Ris.o slashed., Department of Health, Roskilde, Denmark, to investigate the ability of the dextran-crown ether compounds to remove radioactive cesium, Cs^137, from the blood of mice.
Three tests were run, each using five mice.
As basis solution for use as injection liquid or for use as basis for the preparation of such, an aqueous 0,9% sodium chloride solution was used containing Cs^137 in an amount corresponding to 3000 Bq/ml.
In each test the mice were kept in a cage, the bottom of which was a net below which a funnel was arranged for collecting the urine of the mice. After each collection of urine the bottom was flushed with water, and urine plus flushing water were collected and diluted with water to 20 ml before the radioactivity were determined by means of a Geiger counting apparatus.
By this test each mouse was injected with 0,1 ml af the basis solution and thus received 300 Bq Cs^137. The time for this injection, below designated to, was 11:30 .
After one hour each mouse was injected with 0,4 ml of a 6 w/v-% aqueous solution of the dextran-O-carbonylbenzo-18-crown-6-product produced according to Example 1, corresponding to 24 mg of this product per mouse.
Collection of urine with subsequent determination of radioactivity was initiated one hour and […], corresponding to 1.35 hours after to and was continued as it appears from Table I below.
47.81 hours after to a further injection of 0.5 ml of the 6%'s dextran-crown ether-solution was made on each mouse and the collection of urine and determination of radioactivity therein were continued.
At this test the injection solution was a mixture of 2 ml of the above mentioned Cs^137 -containing solution and 8 ml of the dextran-crown ether solution used in Test I.
Each mouse was injected with 0,5 ml of the mixture and thus received 300 Bq Cs^137 and 24 mg dextran-crown ether. Collection of urine and further crown ether injection (0,5 ml 6% solution) was made as in Test 1 as it appears from Table II below.
By this comparison test the injection solution was a mixture of 2 ml of the above mentioned basis solution containing 3000 Bq/ml Cs^137 and 8 ml aqueous 0,9% by weight NaCl-solution. Each mouse was injected using […] of the mixture and thus received 300 Bq Cs^137.

[7] = Complexing capability, diffusion test using a membrane cell; assay type: binding; details: aqueous, alcohol containing solution; relative to free crown ether
[8] = test system: foot-and-mouth desease virus, type A, Holland; set-up: species or system Holland; Guinea pigs; details: guinea pig, in vivo, sc
[9] = Complexing capability, cesium binding in dialysis hose
Description: The resulting solution was transferred to a hose for dialysis having a pore radius of approximately 1.5 nm.
After 12 hours samples taken from the liquid inside the dialysis hose and from the liquid outside the hose in the graduated glass, resp., were measured by means of a gamma counter operating at 0.66 MeV, to determine the ratio of the Cs concentration inside the dialysis hose to the Cs concentration outside the hose. On the basis of these determinations the corresponding amounts of Cs in the two liquids were calculated.

[10] = 0.08% solution, 0.4 ml, 3.2×10^-4 g crown ether

Q: For `c1ccc2c(c1)OCCOCCOCCOCCOCCO2` [benzo-18-crown-6], which “duration of heavy convulsions” value (mice; [10]) is on record?
A: approximately 15 minutes

Q: What about the symptoms and survival (mice; [10]) of the same compound?
A: heavy convulsions appeared; also recorded: the animals survived

Q: What about the “reaction compared with product (B)” value (mice; 3.2×10^-4 g pure compound versus product (B) containing 1.2×10^-4 g unbound) of the same compound?
A: significantly heavier reaction

Q: What about the death of animals (mice; aqueous solution 0.8%, 0.4 ml, 32×10^-4 g crown ether) of the same compound?
A: The animals died immediately before the injection was completed

Q: With `c1ccc2c(c1)OCCOCCOCCOCCOc1ccccc1OCCOCCOCCOCCO2` [dibenzo-30-crown-10] as the compound, how does the anti-coccidial activity (Coccidia [1]) read?
A: have an anti-coccocidal activity in tissue culture tests

Q: What about the “in vivo anti-coccidial effect” value (Coccidia [2]) of the same compound?
A: no in vivo effect was demonstrated

Q: Which signs of illness (mice; i.v., 1% solution, 0.4 ml) does the source give for “T40-Dextran-O-carbonylbenzo-18-crown-6 [product A]” here?
A: did not show any sign of illness

Q: What about the “time after which compound was excreted substantially completely in urine” value [3] of the same compound?
A: 3 to 5 h

Q: Which symptoms after injection (mice; i.v., 10% solution, 0.4 ml) does the source give for “T40-Dextran-O-carbonylbenzo-18-crown-6 [product B]” here?
A: subdued after having received this dose and had bristled furs; also recorded: thereafter they did not shown any symptoms

Q: What about the “duration of being subdued with bristled furs” value (mice; i.v., 10% solution, 0.4 ml, several animals) of the same compound?
A: approximately 30 minutes

Q: For “dextran-O-carbonylbenzo-18-crown-6 [dextran-crown ether]”, which “effect on viral activity” value [4] is on record?
A: impedes the viral activity

Q: What about the “significance of titre difference versus virus control” value [4] of the same compound?
A: not significant

Q: What about the antiviral activity [5] of the same compound?
A: exhibited an antiviral activity at all three days

Q: What about the “radioactivity in urine + flushing water” value ([6]; Test 1, 1.35 hours after to, 24 mg per mouse given one hour after Cs^137) of the same compound?
A: 6978 counts

Q: What about the “radioactivity in urine + flushing water” value ([6]; Test 1, 4.63 hours after new to (second injection)) of the same compound?
A: 3533 counts

Q: And the “radioactivity in urine + flushing water” value ([6]; Test 1, 4.83 hours after to)?
A: 3684 counts

Q: And the “radioactivity in urine + flushing water” value ([6]; Test 1, 8.67 hours after new to (second injection))?
A: 2937 counts

Q: What about the “radioactivity in urine + flushing water” value ([6]; Test 1, 8.88 hours after to) of the same compound?
A: 8280 counts

Q: What about the “radioactivity in urine + flushing water” value ([6]; Test 1, 20.07 hours after to) of the same compound?
A: 17001 counts

Q: And the “radioactivity in urine + flushing water” value ([6]; Test 1, 22.28 hours after new to (second injection))?
A: 6391 counts

Q: What about the “radioactivity in urine + flushing water” value ([6]; Test 1, 44.92 hours after to) of the same compound?
A: 17368 counts

Q: And the “radioactivity in urine + flushing water” value ([6]; Test 1, 47.78 hours after to)?
A: 2213 counts

Q: What about the “Counts, total (accumulated)” value ([6]; Test 1, time 1.35) of the same compound?
A: 6978 counts

Q: What about the “Counts, total (accumulated)” value ([6]; Test 1, time 4.83) of the same compound?
A: 10662 counts

Q: And the “Counts, total (accumulated)” value ([6]; Test 1, time 20.07)?
A: 35943 counts

Q: What about the “Counts, total (accumulated)” value ([6]; Test 1, time 44.92) of the same compound?
A: 53311 counts

Q: And the “Counts, total (accumulated)” value ([6]; Test 1, time 47.78)?
A: 55524 counts

Q: What about the “Counts, total (accumulated)” value ([6]; Test 1, time 52.41) of the same compound?
A: 59057 counts

Q: And the “Counts, total (accumulated)” value ([6]; Test 1, time 56.45)?
A: 61994 counts

Q: And the “Counts, total (accumulated)” value ([6]; Test 1, time 67.06)?
A: 68385 counts

Q: What about the “radioactivity in urine + flushing water” value ([6]; Test 2, 0.87 hours after to, 24 mg per mouse injected in mixture with Cs^137) of the same compound?
A: 4498 counts

Q: What about the “radioactivity in urine + flushing water” value ([6]; Test 2, 4.33 hours after new to (second injection)) of the same compound?
A: 3659 counts

Q: What about the “radioactivity in urine + flushing water” value ([6]; Test 2, 4.62 hours after to) of the same compound?
A: 11634 counts

Q: And the “radioactivity in urine + flushing water” value ([6]; Test 2, 8.40 hours after new to (second injection))?
A: 3222 counts

Q: What about the “radioactivity in urine + flushing water” value ([6]; Test 2, 8.65 hours after to) of the same compound?
A: 8566 counts

Q: And the “radioactivity in urine + flushing water” value ([6]; Test 2, 19.82 hours after to)?
A: 16805 counts

Q: And the “radioactivity in urine + flushing water” value ([6]; Test 2, 22.08 hours after new to (second injection))?
A: 4966 counts

Q: What about the “radioactivity in urine + flushing water” value ([6]; Test 2, 44.65 hours after to) of the same compound?
A: 12901 counts

Q: What about the “radioactivity in urine + flushing water” value ([6]; Test 2, 47.53 hours after to) of the same compound?
A: 2728 counts

Q: And the “Counts, total (accumulated)” value ([6]; Test 2, time 0.87)?
A: 4498 counts

Q: And the “Counts, total (accumulated)” value ([6]; Test 2, time 8.65)?
A: 24698 counts

Q: And the “Counts, total (accumulated)” value ([6]; Test 2, time 19.82)?
A: 41503 counts

Q: What about the “Counts, total (accumulated)” value ([6]; Test 2, time 44.65) of the same compound?
A: 54411 counts

Q: What about the “Counts, total (accumulated)” value ([6]; Test 2, time 47.53) of the same compound?
A: 57139 counts

Q: What about the “Counts, total (accumulated)” value ([6]; Test 2, time 51.86) of the same compound?
A: 60798 counts

Q: What about the “Counts, total (accumulated)” value ([6]; Test 2, time 55.93) of the same compound?
A: 64020 counts

Q: What about the “Counts, total (accumulated)” value ([6]; Test 2, time 69.53) of the same compound?
A: 68986 counts

Q: What about the “speed of excretion of Cs^137 after the second injection” value ([6]; approximately 8 hours after second injection) of the same compound?
A: somewhat increased speed of excretion

Q: What about the “more radioactive Cs excreted than in comparison Test 3” value ([6]; approximately 70 hours, Tests 1 and 2 versus Test 3) of the same compound?
A: approximately 17%

Q: What about the “speed of elimination of Cs^137” value ([6]; first 5-8 hours after the first injection) of the same compound?
A: significantly increased

Q: And the “capability of complexing metals, such as sodium ions” value [7]?
A: has been maintained

Q: And the “reduction of the number of blisters” value [8]?
A: a reduction of the number of blisters was obtained

Q: Which “capability of catching and binding cesium ions” value [9] does the source give for dextran-hydroxyethylbenzo-18-crown-6 here?
A: substantial capability of catching and binding cesium ions

Q: What about the “Cs in liquid inside the hose” value ([9]; after 12 h) of the same compound?
A: 658 µg

Q: What about the “Cs in liquid outside the hose” value ([9]; after 12 h) of the same compound?
A: 1362 µg

Q: And the “Cs conc. inside hose/Cs conc. outside hose” value ([9]; after 12 h, gamma counter)?
A: 1.2

Q: What about the “Cs conc. inside hose/Cs conc. outside hose” value ([9]; initially) of the same compound?
A: 1

Q: What about the “Cs in liquid inside the hose” value ([9]; initially) of the same compound?
A: 520 µg

Q: And the “Cs in liquid outside the hose” value ([9]; initially)?
A: 1500 µg
